Results from US4181574A, “Production of antibiotics by fermentation of novel strains of Micropolyspora caesia” (priority 1978, dated 1980).
≈ marks a conversion by molar mass, not a printed value. Counter-ions that a name gives are not always drawn. Like-named read-outs stand apart in the source and are kept apart here.

What was measured:
[1] = Stability in acidic and alkaline solution; type: physicochemical; details: for stability in alkaline solution: relative to acidic
aerobic bacteria = assay: antibacterial activity against aerobic bacteria; type: cell-based; details: for activity against usual aerobic organisms: E. coli and K. pneumoniae; for susceptibility of Bacillus species, streptococci, Neisseria meningitidis, N. gonorrhoeae and Hemophilus influenzae: in vitro
[2] = test system: C. perfringens or S. pyogenes; type: in vivo, mice
[3] = test system: various aerobic and anaerobic organisms; assay: Antibacterial spectrum; details: variety of anaerobic bacteria and some aerobic bacteria
[4] = test system: two anaerobic and one aerobic organisms; assay: Bactericidal activity; type: cell-based
[5] = test system: Neisseria meninigitidis A21496; assay: MIC, serial two-fold agar dilution, aerobic bacteria; type: cell-based; details: Nm-4, medium B: GC medium (Eiken)
[6] = test system: Neisseria meninigitidis A20049; assay: as above; type: cell-based
Solubility = type: physicochemical; details: lower alcohols, ethyl acetate, chloroform and benzene
bacterial RNA polymerase = details: Antimicrobial Agents and Chemotherapy 1976, page 618; cited from earlier work
[7] = test system: Escherichia coli K-12 A9632; assay: MIC, serial two-fold agar dilution, aerobic bacteria; details: K12A9632
C. perfringens A9635 = type: in vivo, mice; details: po; 5 days
B. fragilis A20928-1 = assay: Inoculum size effect on MIC; type: cell-based; details: Bacteroides fragilis, A209281, read-out: MIC in GAM broth, GAM broth; inoculum […] 10^6 cell/ml
S. pyogenes A20201 = assay: Systemic infection with S. pyogenes in mice; type: in vivo; details: po; 5 days
[8] = test system: Klebsiella pneumoniae A9678; assay: MIC, serial two-fold agar dilution, aerobic bacteria; type: cell-based; details: Kp-2; medium A: Nutrient agar (Eiken)
B. fragilis A20926 = assay: Localized infection with B. fragilis in mice; type: in vivo
[9] = subcutaneous and oral
[10] = Nm-2, medium B: GC medium (Eiken), read-out: MIC

COC(=O)C1C(C)OC2(C)CC(=O)C3OC12OC(C(C)/C=C(C)/C=C/C(=O)C1=C(O)CNC1=O)C3C (centres unmarked) [Bu-2313B]
stability in acidic solution [1]: stable | stability in alkaline solution [1]: less so | activity against usual aerobic organisms (aerobic bacteria): only moderate to weak activity | susceptibility of Bacillus species, streptococci, Neisseria meningitidis, N. gonorrhoeae and Hemophilus influenzae (aerobic bacteria): susceptible | protection against systemic infections ([2]; both subcutaneous and oral administration): fairly good protection | antibacterial activity [3]: exhibit antibacterial activity | type of antibacterial action [4]: bacteriostatic rather than bactericidal | MIC [5]: 1.6 µg/mL (≈ 3.18 µM) | MIC [6, 10]: 0.8 µg/mL (≈ 1.59 µM) | solubility in most organic solvents (Solubility): readily soluble

CC(/C=C/C(=O)C1=C(O)CNC1=O)=C\C(C)C1OC2(C)OC(C(=O)C3OC32C)C1C (centres unmarked) [Tirandamycin]
MIC [5]: 0.8 µg/mL (≈ 1.92 µM) | MIC [6, 10]: 0.8 µg/mL (≈ 1.92 µM) | inhibition of bacterial RNA polymerase (bacterial RNA polymerase): inhibitor of bacterial RNA polymerase | MIC [7]: 100 µg/mL (≈ 240 µM)

COC(=O)C1C(C)OC2(C)CC(=O)C3OC12OC(C(C)/C=C(C)/C=C/C(=O)C1=C(O)CN(C)C1=O)C3C (centres unmarked) [Bu-2313A]
stability in acidic solution [1]: stable | stability in alkaline solution [1]: less so | PD50 (C. perfringens A9635): NA at 50 | activity against usual aerobic organisms (aerobic bacteria): only moderate to weak activity | susceptibility of Bacillus species, streptococci, Neisseria meningitidis, N. gonorrhoeae and Hemophilus influenzae (aerobic bacteria): susceptible | MIC (B. fragilis A20928-1): 0.006 µg/mL (≈ 0.0116 µM) | activity by the oral route ([2]; oral): inactive | antibacterial activity [3]: exhibit antibacterial activity | type of antibacterial action [4]: bacteriostatic rather than bactericidal | PD50 (S. pyogenes A20201): NA at 25 | MIC [5]: 3.1 µg/mL (≈ 5.99 µM) | solubility in most organic solvents (Solubility): readily soluble | MIC [8]: > meningitidis

Cc1ncc([N+](=O)[O-])n1CCO [Flagyl]
mean score (B. fragilis A20926; oral, 6.3 × 5 mg/kg): 3.4 | sum of score (B. fragilis A20926; oral, 6.3 × 5 mg/kg): 17 | mean score (B. fragilis A20926; oral, 25 × 5 mg/kg): 2.6 | sum of score (B. fragilis A20926; oral, 25 × 5 mg/kg): 13 | mean score (B. fragilis A20926; oral, 100 × 5 mg/kg): 1.6 | sum of score (B. fragilis A20926; oral, 100 × 5 mg/kg): 8 | mean score (B. fragilis A20926; oral, […] 5 mg/kg): 4.0 | sum of score (B. fragilis A20926; oral, […] 5 mg/kg): 20 | mean score (B. fragilis A20926; subcutaneous, 0.8 × 5 mg/kg): 4.0 | sum of score (B. fragilis A20926; subcutaneous, 0.8 × 5 mg/kg): 20 | mean score (B. fragilis A20926; subcutaneous, 3.1 × 5 mg/kg): 3.4 | sum of score (B. fragilis A20926; subcutaneous, 3.1 × 5 mg/kg): 17 | mean score (B. fragilis A20926; subcutaneous, 50 × 5 mg/kg): 2.0 | sum of score (B. fragilis A20926; subcutaneous, 50 × 5 mg/kg): 10 | mean score (B. fragilis A20926; subcutaneous, […] 5 mg/kg): 2.4 | sum of score (B. fragilis A20926; subcutaneous, […] 5 mg/kg): 12 | absorption relative to Bu-2313B [9]: better absorptions than Bu-2313B

COC(=O)C1C(C)OC2(C)CC(=O)C3OC12OC(C(C)/C=C(C)/C=C/C(=O)C1=C(O)CNC1=O)C3C (centres unmarked) [Bu-2313B (Na salt)]
mean score (B. fragilis A20926; oral, 6.3 × 5 mg/kg): 3.4 | sum of score (B. fragilis A20926; oral, 6.3 × 5 mg/kg): 17 | mean score (B. fragilis A20926; oral, 25 × 5 mg/kg): 3.0 | sum of score (B. fragilis A20926; oral, 25 × 5 mg/kg): 15 | mean score (B. fragilis A20926; oral, 100 × 5 mg/kg): 2.4 | sum of score (B. fragilis A20926; oral, 100 × 5 mg/kg): 12 | mean score (B. fragilis A20926; oral, […] 5 mg/kg): 4.0 | sum of score (B. fragilis A20926; oral, […] 5 mg/kg): 20 | mean score (B. fragilis A20926; subcutaneous, 0.8 × 5 mg/kg): 4.0 | sum of score (B. fragilis A20926; subcutaneous, 0.8 × 5 mg/kg): 20 | mean score (B. fragilis A20926; subcutaneous, 3.1 × 5 mg/kg): 3.4 | sum of score (B. fragilis A20926; subcutaneous, 3.1 × 5 mg/kg): 17 | mean score (B. fragilis A20926; subcutaneous, 50 × 5 mg/kg): 2.2 | sum of score (B. fragilis A20926; subcutaneous, 50 × 5 mg/kg): 11 | mean score (B. fragilis A20926; subcutaneous, […] 5 mg/kg): 2.8 | sum of score (B. fragilis A20926; subcutaneous, […] 5 mg/kg): 14

CCC[C@@H]1C[C@@H](C(=O)N[C@@H]([C@H]2O[C@H](SC)[C@H](O)[C@@H](O)[C@H]2O)[C@H](C)Cl)N(C)C1 [Clindamycin]
MIC [6]: 0.05 µg/mL (≈ 0.118 µM) | mean score (B. fragilis A20926; oral, 6.3 × 5 mg/kg): 2.6 | sum of score (B. fragilis A20926; oral, 6.3 × 5 mg/kg): 13 | mean score (B. fragilis A20926; oral, 25 × 5 mg/kg): 1.8 | sum of score (B. fragilis A20926; oral, 25 × 5 mg/kg): 9 | sum of score (B. fragilis A20926; oral, 100 × 5 mg/kg): 2 | mean score (B. fragilis A20926; oral, […] 5 mg/kg): 4.0 | sum of score (B. fragilis A20926; oral, […] 5 mg/kg): 20 | mean score (B. fragilis A20926; subcutaneous, 0.8 × 5 mg/kg): 4.0 | sum of score (B. fragilis A20926; subcutaneous, 0.8 × 5 mg/kg): 20 | mean score (B. fragilis A20926; subcutaneous, 3.1 × 5 mg/kg): 2.0 | sum of score (B. fragilis A20926; subcutaneous, 3.1 × 5 mg/kg): 10 | mean score (B. fragilis A20926; subcutaneous, 50 × 5 mg/kg): 0.8 | sum of score (B. fragilis A20926; subcutaneous, 50 × 5 mg/kg): 4 | mean score (B. fragilis A20926; subcutaneous, […] 5 mg/kg): 1.4 | sum of score (B. fragilis A20926; subcutaneous, […] 5 mg/kg): 7

CNC(=O)C(C)C1C(O)=C(C(=O)/C=C/C(C)=C/C(C)C2OC3(C)OC(C=CC34CO4)C2C)C(=O)N1C1CCC(O)C(C)O1 (centres unmarked) [streptolydigin]
inhibition of bacterial RNA polymerase (bacterial RNA polymerase): inhibitor of bacterial RNA polymerase in a manner similar to streptolydigin
